Results published in PubChem BioAssay AID264 (DTP/NCI, 2004).
“And” between values parts separate entries of the source, which are not always exact repeats. Identical values can stand only once. Inconclusive results are not listed.

Test system: nude mice, LX-1 lung xenograft intrarenal, tumor weight T/C
Experiment: NCI In Vivo Anticancer Drug Screen. Data for tumor model Human Lung LX-1 Xenograft (intrarenal inoculation) in NU/NU Swiss (nude) mice
Settings: endpoint: mean tumor weight change, higher = larger tumour
Protocol: The antitumor activity of compounds was measured in mice bearing transplantable tumors. Survival or tumor size were measured and the results are expressed as the measurement made in the treated group (T) divided by the measurement made in the vehicle treated control group (C). The tumor model used in this assay is Human Lung LX-1 Xenograft (intrarenal inoculation) in NU/NU Swiss (nude) mice

[1] = dose: 25.0 mg/kg/injection, schedule: Q01DX010 (sc), vehicle: saline
[2] = dose: 50.0 mg/kg/injection, schedule: Q01DX010 (sc), vehicle: saline
[3] = dose: 25.0 mg/kg/injection, schedule: Q01DX010 (sc), vehicle: Klucel (hydroxypropylcellulose) (HPC)
[4] = dose: 50.0 mg/kg/injection, schedule: Q01DX010 (sc), vehicle: Klucel (hydroxypropylcellulose) (HPC)
[5] = dose: 100.0 mg/kg/injection, schedule: Q01DX010 (sc), vehicle: Klucel (hydroxypropylcellulose) (HPC)
[6] = dose: 200.0 mg/kg/injection, schedule: Q01DX010 (sc), vehicle: Klucel (hydroxypropylcellulose) (HPC)
[7] = dose: 300.0 mg/kg/injection, schedule: Q04DX003 (sc), vehicle: saline with Tween-80
[8] = dose: 600.0 mg/kg/injection, schedule: Q04DX003 (sc), vehicle: saline with Tween-80
[9] = dose: 1200.0 mg/kg/injection, schedule: Q04DX003 (sc), vehicle: saline with Tween-80
[10] = dose: 2400.0 mg/kg/injection, schedule: Q04DX003 (sc), vehicle: saline with Tween-80
[11] = dose: 300.0 mg/kg/injection, schedule: Q04DX003 (sc), vehicle: Klucel (hydroxypropylcellulose) (HPC)
[12] = dose: 600.0 mg/kg/injection, schedule: Q04DX003 (sc), vehicle: Klucel (hydroxypropylcellulose) (HPC)
[13] = dose: 1200.0 mg/kg/injection, schedule: Q04DX003 (sc), vehicle: Klucel (hydroxypropylcellulose) (HPC)
[14] = dose: 2400.0 mg/kg/injection, schedule: Q04DX003 (sc), vehicle: Klucel (hydroxypropylcellulose) (HPC)
[15] = dose: 100.0 mg/kg/injection, schedule: Q01DX010 (sc), vehicle: saline
[16] = dose: 150.0 mg/kg/injection, schedule: Q04DX003 (sc), vehicle: saline with Tween-80
[17] = dose: 800.0 mg/kg/injection, schedule: Q01DX010 (sc), vehicle: Klucel (hydroxypropylcellulose) (HPC)

For `C1CN(P2(N3CC3)=NP(N3CC3)(N3CC3)=NP(N3CC3)(N3CC3)=N2)CCO1` (centres undefined), the T/C (dose: 6.25 mg/kg/injection, schedule: Q01DX010 (sc), vehicle: saline) was 107 % of control, the T/C (dose: 12.5 mg/kg/injection, schedule: Q01DX010 (sc), vehicle: saline) was 38 % of control and 43 % of control and 53 % of control and the T/C [1] was 28 % of control and 29 % of control and 31 % of control. The T/C (dose: 25.0 mg/kg/injection, schedule: Q04DX003 (sc), vehicle: saline) was 74 % of control and 82 % of control, the T/C [2] was 6 % of control and 8 % of control and the T/C (dose: 50.0 mg/kg/injection, schedule: Q04DX003 (sc), vehicle: saline) was 23 % of control and 35 % of control. The T/C (dose: 100.0 mg/kg/injection, schedule: Q04DX003 (sc), vehicle: saline) was 25 % of control.
For `Cc1ccc(C(=O)[O][Hg][CH2]C2COC([CH2][Hg][O]C(=O)c3ccc(C)cc3)CO2)cc1` (centres undefined), the T/C [3] was 89 % of control, the T/C [4] was 58 % of control and the T/C [5] was 112 % of control. For the same compound, the T/C [6] was 63 % of control.
In the case of `Nc1nc2c(ncn2C2OC(CO)C(O)C2O)c(=O)[nH]1` (centres undefined), the T/C [7] is reported as 50 % of control, the T/C [8] is reported as 54 % of control and the T/C [9] is reported as 42 % of control. For the same compound, the T/C [10] was 46 % of control.
For `CC[N](CC)[Ge]([CH2]C)[CH2]C.CC[N](CC)[Ge]([CH2]C)[CH2]C`, the T/C (dose: 12.5 mg/kg/injection, schedule: Q01DX010 (sc), vehicle: suspension in saline) was 67 % of control, the T/C (dose: 25.0 mg/kg/injection, schedule: Q01DX010 (sc), vehicle: suspension in saline) was 89 % of control and the T/C (dose: 50.0 mg/kg/injection, schedule: Q01DX010 (sc), vehicle: suspension in saline) was 77 % of control.
`O=C(O)c1cc(Cc2ccc(O)c(C(=O)O)c2)ccc1O` (tested in a mixture with another compound) was tested, and the T/C [11] was 89 % of control, the T/C [12] was 64 % of control and the T/C [13] was 91 % of control. For the same compound, the T/C [14] was 68 % of control.
In the case of `OCC1OC(n2cnc3cc(Cl)c(Cl)cc32)C(O)C1O` (centres undefined), the T/C [7] is reported as 112 % of control, the T/C [8] is reported as 86 % of control and the T/C [9] is reported as 94 % of control. The T/C [10] was 72 % of control.
In the case of `C(COCCOCC1CO1)OCCOCC1CO1` (centres undefined), the T/C [15] is reported as 108 % of control, the T/C (dose: 200.0 mg/kg/injection, schedule: Q01DX010 (sc), vehicle: saline) is reported as 93 % of control and the T/C (dose: 400.0 mg/kg/injection, schedule: Q01DX010 (sc), vehicle: saline) is reported as 46 % of control.
With `CCOC(=O)C(CC(C)C)NC(=O)C(N)Cc1ccc(N(CCCl)CCCl)cc1` (centres undefined) the T/C (dose: 15.0 mg/kg/injection, schedule: Q04DX003 (sc), vehicle: water) was 72 % of control and the T/C (dose: 30.0 mg/kg/injection, schedule: Q04DX003 (sc), vehicle: water) was 55 % of control.
For `N#CC(=C1C=CC(=NO)C=C1)c1ccc(Cl)cc1`, the T/C [16] was 173 % of control, the T/C [9] was 175 % of control and 198 % of control and the T/C [10] was 180 % of control.
In the case of `O=CC(NC(=O)N(CCCl)N=O)C(O)C(O)C(O)CO` (centres undefined), the T/C (dose: 1.5 mg/kg/injection, schedule: Q01DX010 (sc), vehicle: Klucel (hydroxypropylcellulose) (HPC)) is reported as 208 % of control, the T/C (dose: 6.0 mg/kg/injection, schedule: Q01DX010 (sc), vehicle: Klucel (hydroxypropylcellulose) (HPC)) is reported as 20 % of control and 45 % of control and the T/C (dose: 12.0 mg/kg/injection, schedule: Q01DX010 (sc), vehicle: Klucel (hydroxypropylcellulose) (HPC)) is reported as -23 % of control.
For `CCCCCCCCCCCCCC#CC(=O)O`, the T/C (dose: 75.0 mg/kg/injection, schedule: Q04DX003 (sc), vehicle: saline with Tween-80) was 89 % of control, the T/C [16] was 112 % of control and the T/C [7] was 105 % of control.
For `O=[N+]([O-])/C=C\c1ccc2c(c1)OCO2`, the T/C (dose: 12.5 mg/kg/injection, schedule: Q01DX010 (sc), vehicle: Klucel (hydroxypropylcellulose) (HPC)) was 71 % of control, the T/C [3] was 94 % of control and the T/C [17] was 184 % of control.
In the case of `CC[C@H](CC[C@@H](C)C1CC[C@H]2[C@@H]3CC=C4C[C@@H](OP(=O)(N5CC5)N5CC5)CC[C@]4(C)[C@H]3CC[C@]12C)C(C)C` (some centres undefined), the T/C [7] is reported as 57 % of control, the T/C [8] is reported as 78 % of control and the T/C [9] is reported as 83 % of control. For the same compound, the T/C [10] was 80 % of control.
With `C=CC(=O)NCNC(=O)C=C` the T/C [1] was 88 % of control, the T/C [2] was 103 % of control and the T/C [15] was 64 % of control.
With `COC(=O)C(Cl)(Cl)N=Nc1c(Cl)cc(Cl)c(C)c1Cl` the T/C [16] was 210 % of control, the T/C [7] was 196 % of control and the T/C [8] was 237 % of control. For the same compound, the T/C [9] was 209 % of control.
With `COC(=O)C12OCC34C(CC5C(C)=CC(=O)C(O)C5(C)C3C(O)C1O)OC(=O)C(OC(=O)CC(C)C)C24` (centres undefined) the T/C (dose: 3.0 mg/kg/injection, schedule: Q04DX003 (sc), vehicle: saline + alcohol) was 48 % of control.
In the case of `Cc1ccc(C2NC(=S)N3C(c4ccc(C)cc4)NC(=S)N23)cc1` (centres undefined), the T/C [11] is reported as 64 % of control, the T/C [12] is reported as 66 % of control and the T/C [13] is reported as 80 % of control. The T/C [14] was 65 % of control.
In the case of `O=c1c(O)c(-c2cc(O)c(O)c(O)c2)oc2cc(O)cc(O)c12`, the T/C (dose: 6.0 mg/kg/injection, schedule: Q04DX003 (sc), vehicle: saline with Tween-80) is reported as 93 % of control, the T/C (dose: 12.0 mg/kg/injection, schedule: Q04DX003 (sc), vehicle: saline with Tween-80) is reported as 99 % of control and the T/C (dose: 24.0 mg/kg/injection, schedule: Q04DX003 (sc), vehicle: saline with Tween-80) is reported as 92 % of control. For the same compound, the T/C (dose: 48.0 mg/kg/injection, schedule: Q04DX003 (sc), vehicle: saline with Tween-80) was 96 % of control, the T/C (dose: 50.0 mg/kg/injection, schedule: Q04DX003 (sc), vehicle: saline with Tween-80) was 100 % of control and the T/C (dose: 100.0 mg/kg/injection, schedule: Q04DX003 (sc), vehicle: saline with Tween-80) was 83 % of control. The T/C (dose: 200.0 mg/kg/injection, schedule: Q04DX003 (sc), vehicle: saline with Tween-80) was 69 % of control and the T/C (dose: 400.0 mg/kg/injection, schedule: Q04DX003 (sc), vehicle: saline with Tween-80) was 94 % of control.
`CN(C)N=Nc1ccc(S(N)(=O)=O)cc1` was tested, and the T/C [5] was 1 % of control and 8 % of control, the T/C [6] was 3 % of control and 9 % of control and the T/C [17] was 16 % of control.
With `OCCO` the T/C (dose: 8.0 % in 0.5 ml injection vol, schedule: Q04DX003 (sc), vehicle: water) was 121 % of control and the T/C (dose: 16.0 % in 0.5 ml injection vol, schedule: Q04DX003 (sc), vehicle: water) was 108 % of control.
For `NC(CSC(c1ccccc1)(c1ccccc1)c1ccccc1)C(=O)O` (centres undefined), the T/C [3] was 86 % of control and the T/C [4] was 155 % of control.
In the case of `C1CN2CCC1CC2`, the T/C (dose: 4.69 mg/kg/injection, schedule: Q04DX003 (sc), vehicle: saline with Tween-80) is reported as 96 % of control, the T/C (dose: 9.38 mg/kg/injection, schedule: Q04DX003 (sc), vehicle: saline with Tween-80) is reported as 73 % of control and the T/C (dose: 18.75 mg/kg/injection, schedule: Q04DX003 (sc), vehicle: saline with Tween-80) is reported as 68 % of control.
`CSc1cc(C)[o+]c(C)c1` was tested, and the T/C (dose: 100.0 mg/kg/injection, schedule: Q04DX003 (sc), vehicle: Klucel (hydroxypropylcellulose) (HPC)) was 87 % of control and the T/C (dose: 200.0 mg/kg/injection, schedule: Q04DX003 (sc), vehicle: Klucel (hydroxypropylcellulose) (HPC)) was 76 % of control.
In the case of `COc1cccc2c1C(=O)c1c(O)c3c(c(O)c1C2=O)C[C@@](O)(/C(C)=N/NC(=O)c1ccccc1)C[C@@H]3OC1CC(N)C(O)C(C)O1` (some centres undefined), the T/C (dose: 2.5 mg/kg/injection, schedule: Q04DX003 (sc), vehicle: water) is reported as 113 % of control, the T/C (dose: 10.0 mg/kg/injection, schedule: Q04DX003 (sc), vehicle: water) is reported as 68 % of control and 71 % of control and 93 % of control and the T/C (dose: 18.75 mg/kg/injection, schedule: Q04DX003 (sc), vehicle: water) is reported as 57 % of control. The T/C (dose: 20.0 mg/kg/injection, schedule: Q04DX003 (sc), vehicle: water) was 69 % of control and 79 % of control and 87 % of control, the T/C (dose: 37.5 mg/kg/injection, schedule: Q04DX003 (sc), vehicle: water) was 36 % of control and the T/C (dose: 40.0 mg/kg/injection, schedule: Q04DX003 (sc), vehicle: water) was 71 % of control. For the same compound, the T/C (dose: 75.0 mg/kg/injection, schedule: Q04DX003 (sc), vehicle: water) was 18 % of control and the T/C (dose: 80.0 mg/kg/injection, schedule: Q04DX003 (sc), vehicle: water) was 79 % of control.
In the case of `O=C(N/N=C\c1cc(Br)cc(Br)c1O)N/N=C/c1cc(Br)cc(Br)c1O`, the T/C (dose: 50.0 mg/kg/injection, schedule: Q01DX010 (sc), vehicle: saline with Tween-80) is reported as 373 % of control and the T/C (dose: 800.0 mg/kg/injection, schedule: Q01DX010 (sc), vehicle: saline with Tween-80) is reported as 67 % of control.
